Experimental data reported in publication PMC5698177 (Nature chemical biology, 2017).

System: chPylRS
Experiment: aminoacylation of […]-labeled tRNA
Type: biochemical, Methanosarcina mazei; Methanosarcina barkeri
Details: read-out: KM (mM), ncAA; M. mazei tRNA(Pyl) transcript, 10 mM ATP, 10 mM MgCl2, pH 7.2, 37 °C

Molecule `C[C@@H]1CC=N[C@H]1C(=O)NCCCC[C@H](N)C(=O)O` [compound 1, Pyl] has a Km of 0.0076 ± 0.0002 mM.
With `CC(C)(C)OC(=O)NCCCC[C@H](N)C(=O)O` [compound 12, BocK] the Km was 2.91 ± 0.1 mM.
